{"source": "patent US20080234243A1", "about": "“METHOD OF TREATING AMYLOIDOSIS MEDIATED DISEASES” (priority 2007, published 2008)", "test_system": "soluble Aβ (1-40) peptide", "experiment": "In vivo effect on soluble Aβ (1-40) in whole brain homogenates of CB.17 SCID mice (ELISA)", "settings": "CB17 SCID mice, oral, 300 mg/kg/day for 20 days, brain extracts; P=0.012 vs. control", "experimental": "FIG. 1 provides a graph showing a decrease in soluble AD levels in CB17 SCID mice treated with 2ME2. Mice (5 animals per group) were treated orally for 5 or 20 days with 300 mg/kg/day 2ME2, and soluble Aβ levels were measure in whole brain homogenates. (*P=0.012 vs. control)\nCB. 17 SCID mice were treated orally for 5 or 20 days with 300 mg/kg/day 2ME2. At the end of treatment mice were humanely euthanized, and mouse brain was recovered surgically. This tissue was immediately frozen on dry ice until processing for ELISA analysis of soluble Aβ peptide. Serum is also routinely collected for later analysis as well.\nPreparation of the Brain Extract Solution\n1. Homogenize brains into 15 vol of ice cold TBS, pH 7.4 containing leupeptide (10 ug/ml) and aprotinin (20 ug/ml).\n2. Transfer to microcentrifuge tubes and spin 20,000 g for 20 min at 4° C.\n3. Remove supernatant (TBS Extract) to ice.\n4. Wash once with cold TBS and resuspend in 15 vol of TBS/1% Triton X-100 and protease inhibitors. Incubate 30 min at 4° C. with agitation.\n5. Transfer to microcentrifuge tubes and spin 20,000 g for 20 min at 4° C.\n6. Remove supernatant (Triton Extract) to ice. […]\nHarvested brains were homogenized with a tissue homogenizer, and subjected to serial extraction with TBS followed by TBS/Triton X-100. […] Brains were harvested, and soluble Aβ was assessed. […]", "data": [{"smiles": "COc1cc2c(cc1O)CC[C@@H]1[C@@H]2CC[C@]2(C)[C@@H](O)CC[C@@H]12", "note": "[2ME2, 2-methoxyestradiol]", "values": [{"measurement": "decrease in the levels of soluble Aβ (inhibition)", "result": 46, "unit": "%"}]}]}
